Results: patent US5652238A, “Esters of substituted-hydroxyacetyl piperazine phenyl oxazolidinones” (Pharmacia & Upjohn Company, priority 1996, dated 1997)
Converted amounts (≈) assume the structure as drawn. Structures can show the parent of a compound that is named as a salt.

What was measured:
[1] = system: Staphylococcus aureus UC9213 or Streptococcus species; assay: Antimicrobial activity in vivo, Murine Assay (mice infected intraperitoneally with bacteria; ED50 from survival over six days); details: 144 h, female mice, treatment one hour and five hours after infection
Description: Antimicrobial activity was tested in vivo using the Murine Assay procedure. Groups of female mice (six mice of 18-20 grams each) were injected intraperitoneally with bacteria which were thawed just prior to use and suspended in brain heart infusion with 4% brewers yeast UC9213 (Staphylococcus aureus) or brain heart infusion (Streptococcus species). Antibiotic treatment at six dose levels per drug was administered one hour and five hours after infection by either oral intubation or subcutaneous ("subcut.") routes. Survival was observed daily for six days. ED50 values based on mortality ratios were calculated using probit analysis. The subject compounds were compared against a well-known antimicobial (Vancomycin) as a control.

[2] = Aqueous solubility (pH 7, phosphate buffer); assay type: physicochemical

Work on `CC(=O)NC[C@H]1CN(c2ccc(N3CCN(C(=O)COC(=O)CCN4CCOCC4)CC3)c(F)c2)C(=O)O1` [Example 1, 3-(4-Morpholinyl)propionic acid, 2-(4-(4-(5-((acetylamino)methyl)-2-oxo-3-oxazolidinyl)-2-fluorophenyl)-1-piperazinyl)-2-oxoethyl ester, (S)] yielded an ED50 ([1]; oral) of 5 mg/kg, an ED50 ([1]; sc, subcut.) of 4 mg/kg and a solubility [2] of 36000 µg/mL (≈ 67.2 mM).
Work on `CC(=O)NC[C@H]1CN(c2ccc(N3CCN(C(=O)COC(=O)c4cccnc4)CC3)c(F)c2)C(=O)O1` [Example 2, Nicotinic acid, 2-[4-[4-[5-[(acetylamino)methyl]-2-oxo-3-oxazolidinyl]-2-fluorophenyl]-1-piperazinyl]-2-oxoethyl ester, (S)-] yielded an ED50 ([1]; oral) of 9 mg/kg, an ED50 ([1]; sc, subcut.) of 15 mg/kg and a solubility [2] of 300 µg/mL (≈ 0.601 mM).
In the case of `CC(=O)NC[C@H]1CN(c2cc(F)c(N3CCN(C(=O)COC(=O)c4cccnc4)CC3)c(F)c2)C(=O)O1` [Example 3, Nicotinic acid, 2-[4-[4-[5-[(acetylamino)methyl]-2-oxo-3-oxazolidinyl]-2,6-difluorophenyl]-1-piperazinyl]-2-oxoethyl ester, (S)-6], the ED50 ([1]; oral) is reported as 16 mg/kg, the ED50 ([1]; sc, subcut.) is reported as 8 mg/kg and the solubility [2] is reported as 50 µg/mL (≈ 0.0966 mM).
Molecule `CC(=O)NC[C@H]1CN(c2ccc(N3CCN(C(=O)COC(=O)n4ccnc4)CC3)c(F)c2)C(=O)O1` [Example 4, 1H-imidazole-1-carboxylic acid, 2-[4-[4-[5-[(acetylamino)methyl]-2-oxo-3-oxazolidinyl]-2-fluorophenyl]-1-piperazinyl]-2-oxoethyl ester, (S)-] has an ED50 ([1]; oral) of 2 mg/kg, an ED50 ([1]; sc, subcut.) of 2 mg/kg and a solubility [2] of 1400 µg/mL (≈ 2.87 mM).
`CC(=O)NC[C@H]1CN(c2cc(F)c(N3CCN(C(=O)COC(=O)n4ccnc4)CC3)c(F)c2)C(=O)O1` [Example 5, 1H-imidazole-1-carboxylic acid, 2-[4-[4-[5-[(acetylamino)methyl]-2-oxo-3-oxazolidinyl]-2,6-difluorophenyl]-1-piperazinyl]-2-oxoethyl ester, (S)-] gave an ED50 ([1]; oral) of 7 mg/kg and an ED50 ([1]; sc, subcut.) of 5 mg/kg.
In the case of `COCCOC(=O)OCC(=O)N1CCN(c2ccc(N3C[C@H](CNC(C)=O)OC3=O)cc2F)CC1` [Example 6, Carbonic acid, 2-[4-[4-[5-[(acetylamino)methyl]-2-oxo-3-oxazolidinyl]-2-fluorophenyl]-1-piperazinyl]-2-oxoethyl ester-2-methoxyethyl ester, (S)], the ED50 ([1]; oral) is reported as 2 mg/kg, the ED50 ([1]; sc, subcut.) is reported as 2 mg/kg and the solubility [2] is reported as 2900 µg/mL (≈ 5.84 mM).
For `CC(=O)NC[C@H]1CN(c2ccc(N3CCN(C(=O)COC(=O)c4ccc(N(C)C)cc4)CC3)c(F)c2)C(=O)O1` [Example 7, 4-dimethylaminobenzoic acid, 2-[4-[4-[5-[(acetylamino)methyl]-2-oxo-3-oxazolidinyl]-2-fluorophenyl]-1-piperazinyl]-2-oxoethyl ester, (S)-], the ED50 ([1]; oral) was > 20 mg/kg, the ED50 ([1]; sc, subcut.) was 1 mg/kg and the solubility [2] was 10 µg/mL (≈ 0.0185 mM).
For `CC(=O)NC[C@H]1CN(c2cc(F)c(N3CCN(C(=O)COC(=O)c4ccc(N(C)C)cc4)CC3)c(F)c2)C(=O)O1` [Example 8, 4-dimethylaminobenzoic acid, 2-[4-[4-[5-[(acetylamino)methyl]-2-oxo-3-oxazolidinyl]-2,6-difluorophenyl]-1-piperazinyl]-2-oxoethyl ester, (S)-], the ED50 ([1]; oral) was 10 mg/kg, the ED50 ([1]; sc, subcut.) was 6 mg/kg and the solubility [2] was 10 µg/mL (≈ 0.0179 mM).
In the case of `CC(=O)NC[C@H]1CN(c2ccc(N3CCN(C(=O)COC(=O)CN(C)C)CC3)c(F)c2)C(=O)O1` [Example 9, Glycine, N,N-dimethyl-, 2-[4-[4-[5-[(acetylamino)methyl]-2-oxo-oxazolidinyl]-2-fluorophenyl]-1-piperazinyl]-2-oxoethyl ester, (S)-], the ED50 ([1]; oral) is reported as 2 mg/kg, the ED50 ([1]; sc, subcut.) is reported as 3 mg/kg and the solubility [2] is reported as 150000 µg/mL (≈ 313 mM).
`CC(=O)NC[C@H]1CN(c2cc(F)c(N3CCN(C(=O)COC(=O)CN(C)C)CC3)c(F)c2)C(=O)O1` [Example 10, Glycine, N,N-dimethyl-, 2-[4-[4-[5-[(acetylamino)methyl]-2-oxo-3-oxazolidinyl]-2,6-difluorophenyl]-1-piperazinyl]-2-oxoethyl ester, (S)-] showed an ED50 ([1]; oral) of 1 mg/kg, an ED50 ([1]; sc, subcut.) of 2 mg/kg and a solubility [2] of 4200 µg/mL (≈ 8.44 mM).
In the case of `CC(=O)NC[C@H]1CN(c2ccc(N3CCN(C(=O)COC(=O)CCN(C)C)CC3)c(F)c2)C(=O)O1` [Example 11, 3-(Dimethylamino)propanoic acid, 2-[4-[4-[5-[(acetylamino)methyl]-2-oxo-3-oxazolidinyl]-2-fluorophenyl]-1-piperazinyl]-2-oxoethyl ester, (S)-], the ED50 ([1]; oral) is reported as 8 mg/kg and the ED50 ([1]; sc, subcut.) is reported as 8 mg/kg.
For `CC(=O)NC[C@H]1CN(c2ccc(N3CCN(C(=O)COC(=O)CCCN(C)C)CC3)c(F)c2)C(=O)O1` [Example 12, 4-(Dimethylamino)butanoic acid, 2-[4-[4-[5-[(acetylamino)methyl]-2-oxo-3-oxazolidinyl]-2-fluorophenyl]-1-piperazinyl]-2-oxoethyl ester, (S)-], the ED50 ([1]; oral) was 12 mg/kg, the ED50 ([1]; sc, subcut.) was > 20 mg/kg and the solubility [2] was 34600 µg/mL (≈ 68.2 mM).
With `CC(=O)NC[C@H]1CN(c2ccc(N3CCN(C(=O)COC(=O)CN4CCN(C)CC4)CC3)c(F)c2)C(=O)O1` [Example 13, (4-Methyl-1-piperazinyl)acetic acid, 2-[4-[4-[5-[(acetylamino)methyl]-2-oxo-3-oxazolidinyl]-2-fluorophenyl]-1-piperazinyl]-2-oxoethyl ester, (S)-] the ED50 ([1]; oral) was > 20 mg/kg, the ED50 ([1]; sc, subcut.) was > 20 mg/kg and the solubility [2] was 79100 µg/mL (≈ 148 mM).
For `CC(=O)NC[C@H]1CN(c2cc(F)c(N3CCN(C(=O)COC(C)=O)CC3)c(F)c2)C(=O)O1` [Example 14, Acetic acid, 2-(4-(4-(5-((acetylamino)methyl)-2-oxo-3-oxazolidinyl)-2,6-difluorophenyl)-1-piperazinyl)-2-oxoethyl ester, (S)], the ED50 ([1]; oral) was 3 mg/kg and the solubility [2] was 1600 µg/mL (≈ 3.52 mM).
`CC(=O)NC[C@H]1CN(c2cc(F)c(N3CCN(C(=O)COC(=O)CCC(=O)O)CC3)c(F)c2)C(=O)O1` [Example 15, Succinic acid, 2-(4-(4-(5-((acetylamino)methyl)-2-oxo-3-oxazolidinyl)-2,6-difluorophenyl)-1-piperazinyl)-2-oxoethyl monoester, (S)] showed a solubility [2] of 12300 µg/mL (≈ 24 mM).
`CC(=O)NC[C@H]1CN(c2cc(F)c(N3CCN(C(=O)COC(=O)CCC(=O)O)CC3)c(F)c2)C(=O)O1` [Example 16, Succinic acid, 2-(4-(4-(5-((acetylamino)methyl)-2-oxo-3-oxazolidinyl)-2,6-difluorophenyl)-1-piperazinyl)-2-oxoethyl monoester, sodium salt, (S)] gave an ED50 ([1]; oral) of 4 mg/kg.
Work on `CC(=O)NC[C@H]1CN(c2ccc(N3CCN(C(=O)COC(=O)CCC(=O)O)CC3)c(F)c2)C(=O)O1` [Example 17] yielded an ED50 ([1]; oral) of 5 mg/kg, an ED50 ([1]; sc, subcut.) of 2 mg/kg and a solubility [2] of 28000 µg/mL (≈ 56.6 mM).
For `CC(=O)CCC(=O)OCC(=O)N1CCN(c2c(F)cc(N3C[C@H](CNC(C)=O)OC3=O)cc2F)CC1` [Example 18, 4-Oxo-valeric acid, 2-(4-(4-(5-((acetylamino)methyl)-2-oxo-3-oxazolidinyl)-2,6-difluorophenyl)-1-piperazinyl)-2-oxoethyl ester, (S)], the ED50 ([1]; oral) was 14 mg/kg, the ED50 ([1]; sc, subcut.) was > 20 mg/kg and the solubility [2] was 1200 µg/mL (≈ 2.35 mM).
`CC(=O)CCC(=O)OCC(=O)N1CCN(c2ccc(N3C[C@H](CNC(C)=O)OC3=O)cc2F)CC1` [Example 19, 4-Oxo-valeric acid, 2-(4-(4-(5-((acetylamino)methyl)-2-oxo-3-oxazolidinyl)-2-fluorophenyl)-1-piperazinyl)-2-oxoethyl monoester, (S)] gave a solubility [2] of 2290 µg/mL (≈ 4.65 mM).
`CC(=O)NC[C@H]1CN(c2ccc(N3CCN(C(=O)COP(=O)(O)O)CC3)c(F)c2)C(=O)O1` [Example 20, Phosphoric acid, 2-(4-(4-(5-((acetylamino)methyl)-2-oxo-3-oxazolidinyl)-2-fluorophenyl)-1-piperazinyl)-2-oxoethyl ester, (S)] showed an ED50 ([1]; oral) of 6 mg/kg, an ED50 ([1]; sc, subcut.) of 4 mg/kg and a solubility [2] of 25700 µg/mL (≈ 54.2 mM).
Work on `CC(=O)NC[C@H]1CN(c2ccc(N3CCN(C(=O)COC(=O)c4ccc(N)cc4)CC3)c(F)c2)C(=O)O1` [Example 21, 4-aminobenzoic acid, 2-[4-[4-[5-[(acetylamino)methyl]-2-oxo-3-oxazolidinyl]-2-fluorophenyl]-1-piperazinyl]-2-oxoethyl ester, (S)-] yielded an ED50 ([1]; oral) of 8 mg/kg, an ED50 ([1]; sc, subcut.) of 13 mg/kg and a solubility [2] of 30 µg/mL (≈ 0.0584 mM).
In the case of `CC(=O)NC[C@H]1CN(c2ccc(N3CCN(C(=O)COC(=O)C(C)(CO)CO)CC3)c(F)c2)C(=O)O1` [Example 22, 2,2-bis(hydroxymethyl)propionic acid, 2-[4-[4-[5-[(acetylamino)methyl]-2-oxo-3-oxazolidinyl]-2-fluorophenyl]-1-piperazinyl]-2-oxoethyl ester, (S)-], the ED50 ([1]; oral) is reported as > 18 mg/kg, the ED50 ([1]; sc, subcut.) is reported as 4 mg/kg and the solubility [2] is reported as 13000 µg/mL (≈ 25.5 mM).
`CC(=O)NC[C@H]1CN(c2ccc(N3CCN(C(=O)COC(=O)CO)CC3)c(F)c2)C(=O)O1` [Example 23, Hydroxyacetic acid, 2-[4-[4-[5[(acetylamino)methyl]-2-oxo-3-oxazolidinyl]-2-fluorophenyl]-1-piperazinyl]-2-oxoethyl ester, (S)] gave an ED50 ([1]; oral) of 2 mg/kg, an ED50 ([1]; sc, subcut.) of 1 mg/kg and a solubility [2] of 4200 µg/mL (≈ 9.28 mM).
For `CC(=O)NC[C@H]1CN(c2cc(F)c(N3CCN(C(=O)COC(=O)CO)CC3)c(F)c2)C(=O)O1` [Example 24, Hydroxyacetic acid, 2-[4-[4-[5-[(acetylamino)methyl]-2-oxo-3-oxazolidinyl]-2,6-difluorophenyl]-1-piperazinyl]-2-oxoethyl ester,], the ED50 ([1]; oral) was 1 mg/kg.
`CC(=O)NC[C@H]1CN(c2ccc(N3CCN(C(=O)COC(=O)c4ccc(NC(=O)CN(C)C)cc4)CC3)c(F)c2)C(=O)O1` [Example 28, 4-N-(N,N-dimethylglycinyl)aminobenzoic acid, 2-[4-[4-[5-[(acetylamino)methyl]-2-oxo-3-oxazolidinyl]-2-fluorophenyl]-1-piperazinyl]-2-oxoethyl ester, (S)-] showed a solubility [2] of 90 µg/mL (≈ 0.15 mM).
